Source: EP0412158A1, “ONCOSTATIC DRUG” (priority 1987, dated 1988)

Tests used:
[1] = tested on: methyl cholanthrene A tumor; experiment: Methyl cholanthrene A tumor, evaluation by weight of tumor (Examples 13 to 16); assay type: in vivo, female BALB/C mice; settings: for Average weight of tumor / Number of tumorless mice /total number of mice / T/control: 100 mg/kg; for Average weight of tumor / Number of tumorless mice /total number of mice: ip × 9; for T/control: ip×9, tumor weight
Procedure: (§1) Compound E, an alkali metal salt of polymolybdic acid (Example 13), and other compounds (Compounds F to H) mentioned above were severally dissolved in distilled water to obtain aqueous solutions containing the compounds in a fixed concentration of 10 mg/ml. These aqueous solutions were administered to female BALB/C mice (five weeks old) to which methyl cholanthrene A tumor had been transplanted to test the compounds for antineoplastic activity. To be morespecific, the methyl cholanthrene A was transplanted to the mice in a ratio of 1.0 x 10^5 cells per mouse and the aqueous solution was continuously administered (at a dose of 100 mg/kg of body weight) for nine days by intraperitoneal injection. On elapse of 14 days after the stop of the administration, the tumors in the mice were weighed. For comparison, mice to which the aqeuous solution was not administered and the mice to which aminonitrosourea was administered were similarly tested.

methyl cholanthrene A [2] = experiment: Methyl cholanthrene A tumor, evaluation by elongation of period of survival (Examples 17 to 20); assay type: in vivo, female BALB/C mice; settings: 100 mg/kg ×9
Procedure: The aforementioned active compounds, E to H, were severally dissolved in distilled water to obtain aqueous solutions containing the compounds in a fixed concentration of 10 mg/ml. To female BALB/C mice (five weeks old) to which methyl cholanthrene A had been transplanted in a ratio of 1.0 x 10^5 cells per mouse, the aqueous solutions were continuously administered at a dose of 100 mg/kg of body weight for nine days by intraperitoneal injection to determine the mices periods of survival. For comparison, mice to which no aqueous solution was administered and mice to which aminonitrosourea was administered were similarly tested.

MM-46 breast cancer [3] = assay type: in vivo, female C3H/He mice; settings: 5 mg/kg, ip × 9
MM-46 breast cancer [4] = experiment: MM-46 breast cancer, evaluation by size of tumor (Examples 21 to 24); assay type: in vivo, female C3H/He mice; settings: 5 mg/kg
[5] = as above; assay type: in vivo, female C3H/He mice; settings: mouse, in vivo, ip; read-out: largest allowable dose
methyl cholanthrene A [6] = experiment: Methyl cholanthrene A tumor, evaluation by elongation of period of survival (Examples 31, 34 and 35); assay type: in vivo, female BALB/C mice
Procedure: The active compounds, M to 0, mentioned above were severally dissolved in distilled water to obtain aqueous solutions containing the compounds in a fixed concentration of 10 mg/ml. To be specific, to female BALB/C mice (five weeks old) to which methyl cholanthrene A had been transplanted in a ratio of 1.0 x 10^5 cells per mouse, […] for 9 consecutive days to determine the mice's periods of survival. For comparison, mice to which no aqueous solution was administered and mice to which aminonitrosourea was administered were similarly tested.

methyl cholanthrene A [7] = experiment: Methyl cholanthrene A tumor, evaluation by extension of period of survival (Examples 7 to 11); assay type: in vivo, female BALB/C mice; settings: 5 mg/kg; for Average number of days of survival / Number of toxically killed mice/total number of mice / T/control: ip×9; for Change in body weight: ip×9, D1~D9; for T/control: days of survival
Procedure: The aforementioned compounds, A to D, were severally dissolved in distilled water to obtain aqueous solutions containing the compounds in a fixed concentration of 10 mg/ml. To the female BALB/C mice (five weeks old) to which methyl cholanthrene A had been transplanted in a ratio of 1.0 x 10^5 cells per mouse, […] to determine the mices' periods of survival. For comparison, mice to which no antineoplastic drug was administered and mice to which aminonitroso urea was administered were similarly tested.

[8] = Methyl cholanthrene A tumor, evaluation by weight of tumor (Examples 13 to 16); assay type: in vivo, female BALB/C mice; settings: mouse, in vivo, ip; read-out: largest allowable dose
Procedure: as §1

[9] = Methyl cholanthrene A tumor, evaluation by size of tumor (Examples 31 to 33); assay type: in vivo, female BALB/C mice; settings: mouse, in vivo, ip; read-out: largest allowable dose
Procedure: (§2) A heteropoly acid salt, Na5[IM06O24]•34H2O (Compound M), and other compounds (Compounds N and O ) were severally dissolved in distilled water to obtain aqueous solutions containing the salts in a fixed concentration of 10 mg/ml. To female BALB/C mice (five weeks old) to which methyl cholanthrene A tumor had been transplanted, the aqueous solutions were administered to test the compounds for antineoplastic activity. To be specific, the methyl cholanthrene A was transplanted to the mice at a ratio of 1.0 x 10^5 cells per mouse and the aqueous solutions were administered ([…]) for 9 consecutive days by intraperitoneal injection. On elapse of 14 and 21 days after the stop of the administration, the sizes of tumors in the mice were measured. For comparison, mice to which no aqueous solution was administered and mice to which aminonitrosourea was administered were similarly tested.

[10] = tested on: methyl cholanthrene A tumor; experiment: as above; assay type: in vivo, female BALB/C mice
Procedure: as §2

methyl cholanthrene A [11] = experiment: Methyl cholanthrene A tumor, evaluation by elongation of period of survival (Examples 17 to 20); assay type: in vivo, female BALB/C mice; settings: 5 mg/kg ×9
[12] = Antineoplastic activity against transplanted methyl cholanthrene A tumor, evaluation by size of tumor (Examples 1 to 6); assay type: in vivo, female BALB/C mice; settings: mouse, in vivo, ip
Procedure: (§3) By dissolving alkylammonium salt of polymolybdic acid [NH3C3H7(iso)]s [Mo7O24] • 3H2O (Compound A) and other compounds (Compounds B to D) severally in distilled water, aqueous solutions containing the compounds in a fixed concentration of 10 mg/ml were obtained. These aqueous solutions were administered to female BALB/C mice (five weeks old) to which methyl cholanthrene A tumor had been transplanted to test the compounds for antineoplastic activity. To be specific, methyl cholanthrene A was transplanted to the mice in a ratio of 1.0 x 10^5 cells per mouse and the aqueous solutions were continuously administered to the mice by intraperitoneal injection ([…]) for nine days. On elapse of 14 days following the start of the administration, the tumors in the mice were measured. For comparison, mice to which no antineoplastic .drug was administered and mice to which aminonitroso urea was administered were tested by following the procedure described above.

[13] = tested on: methyl cholanthrene A tumor; experiment: as above; assay type: in vivo, female BALB/C mice; settings: 5 mg/kg, ip×9; for Change in body weight: body weight 13 days after transplantation; for T/control: tumor weight
Procedure: as §3

[14] = tested on: methyl cholanthrene A tumor; experiment: Methyl cholanthrene A tumor, evaluation by weight of tumor (Examples 13 to 16); assay type: in vivo, female BALB/C mice; settings: 5 mg/kg

## O.O.O.O.[K+].[K+].[K+].[K+].[K+].[K+].[O]=[Mo](=[O])([O-])[O][Mo](=[O])(=[O])[O][Mo](=[O])([O-])([O-])[O][Mo](=[O])(=[O])[O][Mo](=[O])([O-])([O-])[O][Mo](=[O])(=[O])[O][Mo](=[O])(=[O])[O-] [Compound E, K6 [Mo7O24] • 4H2O]
[1]
  Average weight of tumor: 1281.6±184.2(8) mg
  Number of tumorless mice /total number of mice: 0/8
  T/control: 0.498
[1]; 100 mg/kg.ip for nine days, judged by increase of body weight, result in words
  toxicity: very slight toxicity
Methyl cholanthrene A [2]
  Average number of days of survival: 35.5±2.2(8) days
  Number of toxically killed mice/total number of mice: 0/8
  Ratio of prolonging life: 57.8%

## O.O.O.O.[Na+].[Na+].[Na+].[Na+].[Na+].[Na+].[O]=[Mo](=[O])([O-])[O][Mo](=[O])(=[O])[O][Mo](=[O])([O-])([O-])[O][Mo](=[O])(=[O])[O][Mo](=[O])([O-])([O-])[O][Mo](=[O])(=[O])[O][Mo](=[O])(=[O])[O-] [Compound F, Na6 [Mo7O24] • 4H2O]
[1]
  Average weight of tumor: 1592.8±257.6(8) mg
  Number of tumorless mice /total number of mice: 0/8
  T/control: 0.618
Methyl cholanthrene A [2]
  Average number of days of survival: 35.0±5.7(8) days
  Number of toxically killed mice/total number of mice: 0/8
  Ratio of prolonging life: 55.6%

## O.O.O.O.[Li+].[Li+].[Li+].[Li+].[Li+].[Li+].[O]=[Mo](=[O])([O-])[O][Mo](=[O])(=[O])[O][Mo](=[O])([O-])([O-])[O][Mo](=[O])(=[O])[O][Mo](=[O])([O-])([O-])[O][Mo](=[O])(=[O])[O][Mo](=[O])(=[O])[O-] [Compound G, Li6 [Mo7O24] • 4H2O]
[1]
  Average weight of tumor: 1760±254.6(8) mg
  Number of tumorless mice /total number of mice: 0/8
  T/control: 0.683
Methyl cholanthrene A [2]
  Average number of days of survival: 31.6±5.4(8****) days
  Number of toxically killed mice/total number of mice: 0/8
  Ratio of prolonging life: 40.4%

## O.O.O.O.[Cs+].[Cs+].[Cs+].[Cs+].[Cs+].[Cs+].[O]=[Mo](=[O])([O-])[O][Mo](=[O])(=[O])[O][Mo](=[O])([O-])([O-])[O][Mo](=[O])(=[O])[O][Mo](=[O])([O-])([O-])[O][Mo](=[O])(=[O])[O][Mo](=[O])(=[O])[O-] [Compound H, Cs6 [Mo7O24] • 4H2O]
[1]
  Average weight of tumor: 1599.5±340.6(8) mg
  Number of tumorless mice /total number of mice: 0/8
  T/control: 0.621
Methyl cholanthrene A [2]
  Average number of days of survival: 32.9±5.5(8) days
  Number of toxically killed mice/total number of mice: 0/8
  Ratio of prolonging life: 46.2%

## Cc1ncc(CNC(=O)N(CCCl)N=O)c(N)n1 [reference compound]
MM-46 breast cancer [3]
  Average number of days of survival: 29.1±2.1(8) days
  Average weight of tumor after 14 days: 1364.3 ± 200.0 mg
  Ratio of elongation of life (5): 76.4
MM-46 breast cancer [4]; ip × 9
  Average weight of tumor: 1364.3 ± 200.0 mg
  Number of tumorless mice /total number of mice: 0/8
MM-46 breast cancer [4]; ip×9, tumor weight
  T/control: 0.473
[5]
  MTD: 5 mg/kg
Methyl cholanthrene A [6]; 2.5 mg/kg, ip × 9 (D1~D9)
  Average number of days of survival ±SE: 31.13±1.14(8) days
  ILS: 18%
Methyl cholanthrene A [6]; 7.5 mg/kg, ip × 9
  Average number of days of survival ±SE: 36.67±1.07(9) days
  ILS: 47.3%
Methyl cholanthrene A [6]; 7.5 mg/kg, ip × 9, observed 60 days after transplantation
  Number of mice of no tumor/total number of mice: 0/9
Methyl cholanthrene A [7]; No. 1
  Average number of days of survival: 35.8 ± 1.4 days
  Number of toxically killed mice/total number of mice: 0/8
  Change in body weight: +1.58 g
  T/control: 138.0
Methyl cholanthrene A [7]; No. 2
  Average number of days of survival: 28.0±3.1(9) days
  Number of toxically killed mice/total number of mice: 0/8
  Change in body weight: +1.58 g
  T/control: 124.5
[8]
  MTD: 5 mg/kg
[9]
  MTD: 7.5 mg/kg
[10]; 2.5 mg/kg, ip × 9 (D1~D9)
  Average weight of tumor after elapse of 14 days ± SE: 347.9 ± 63.8 mg
[10]; 2.5 mg/kg, ip × 9 (D1~D9), tumor weight after 14 days
  T/C: 0.405
[10]; 7.5 mg/kg, ip × 9, tumor weight after 14 days
  T/C: 0.367
[10]; 7.5 mg/kg, ip × 9, tumor weight after 21 days
  T/C: 0.444
Methyl cholanthrene A [11]
  Average number of days of survival: 28.0±3.1(9) days
  Number of toxically killed mice/total number of mice: 0/8
  Ratio of prolonging life: 24.4%
[12]
  MTD: 5 mg/kg
[13]; No. 1
  Average weight of tumor: 1151.1 ± 162.7 mg
  Number of tumorless mice /total number of mice: 0/8
  Change in body weight: +1,58 (D1~D9) g
  T/control: 0.430
[13]; No. 3
  Average weight of tumor: 1151.1 ± 162.7 mg
  Number of tumorless mice /total number of mice: 0/8
  Change in body weight: +1,58 (D1~D9) g
  T/control: 0.430
[14]; ip × 9
  Average weight of tumor: 1151.1 ± 162.7 mg
  Number of tumorless mice /total number of mice: 0/8
[14]; ip×9, tumor weight
  T/control: 0.447
[14]; ip×9 D1-D9, body weight 13 days after tumor transplantation
  Change in body weight: +1,58 g
